Assay results taken from US20240342190A1, “METHODS FOR REDUCING ISCHEMIA-REPERFUSION INJURIES” (BioMimetix JV, LLC, priority 2023, published 2024).
Entries after “also recorded” stand apart in the source; their conditions may differ.

Assays:
[1] = test system: blood brain barrier; experiment: Experiment 7: blood brain barrier permeability after intracarotid infusion (Evans blue content); conditions: non-stroke rats, vs vehicle
Method: 30 μg/kg of BMX-001 (n=4), or same amount of saline (n=4) or mannitol (n=4) was given to normal male Wistar rats through the carotid artery. The rats received 100 μl 2% Evans blue intravenous infusion 30 min later and then intracardially perfused using 100 ml normal saline at 30 min following infusion. Brains were harvested and the Evans blue content was measured spectrophotometrically.

[2] = test system: animal model of ischemic stroke; conditions: given 6 hours after reperfusion; cited from earlier work

SMILES	Evans blue content in brain / blood brain barrier permeability, in words [1]	Protection in ischemic stroke, in words [2]
OC[C@@H](O)[C@@H](O)[C@H](O)[C@H](O)CO [Mannitol, reference compound]	significant increase of Evans blue content; also recorded: did increase the blood brain barrier (BBB) permeability	–
CC[n+]1ccccc1-c1c2nc(c(-c3cccc[n+]3CC)c3ccc([n-]3)c(-c3cccc[n+]3CC)c3nc(c(-c4cccc[n+]4CC)c4ccc1[n-]4)C=C3)C=C2.[Mn+3] [MnTE-2-PyP^5+]	–	provided protection
